The record followed here is patent US20260250290A1 (BRISTOL-MYERS SQUIBB COMPANY, priority 2023, published 2026).

Structures can show the parent of a compound that is named as a salt.

The target in this assay is T1, SGK1 (Homo sapiens, UniProt O00141).
T1 sequence (O00141 1-431): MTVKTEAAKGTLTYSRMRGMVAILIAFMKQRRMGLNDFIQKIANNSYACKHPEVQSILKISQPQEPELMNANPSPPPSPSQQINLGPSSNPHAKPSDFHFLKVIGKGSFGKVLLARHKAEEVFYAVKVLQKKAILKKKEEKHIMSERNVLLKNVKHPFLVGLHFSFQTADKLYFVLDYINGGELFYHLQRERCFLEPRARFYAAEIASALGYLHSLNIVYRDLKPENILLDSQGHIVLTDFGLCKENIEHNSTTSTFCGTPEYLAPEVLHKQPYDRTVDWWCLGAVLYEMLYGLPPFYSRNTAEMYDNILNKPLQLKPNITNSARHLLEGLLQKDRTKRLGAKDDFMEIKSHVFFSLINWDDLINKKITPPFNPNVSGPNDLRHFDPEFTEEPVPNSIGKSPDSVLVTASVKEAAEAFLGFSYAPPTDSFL
Nature of the assay: SGK1 inhibition Assay B (Echo mass spectrometry of phosphorylated peptide product). It counts as biochemical. The conditions noted are these: 60 min at room temperature.

In turn, `CC(C)N1CC2(CN(c3cccc(C(=O)N[C@@H]4CCCN(c5cc(-c6cc(F)c(-n7cnnn7)cc6F)n6ncnc(N)c56)C4)n3)C2)C1` [Example 825, (R)-N-(1-(4-amino-7-(2,5-difluoro-4-(1H-tetrazol-1-yl)phenyl)pyrrolo[2,1-f][1,2,4]triazin-5-yl)piperidin-3-yl)-6-(6-isopropyl-2,6-diazaspiro[3.3]heptan-2-yl)picolinamide] yielded an IC50 of 7 nM. The same measure for `CC(C)N1CC2(CN(c3cccc(C(=O)N[C@@H]4CCCN(c5cc(-c6cc(F)c(-n7cnnn7)c(F)c6)n6ncnc(N)c56)C4)n3)C2)C1` [Example 826, (R)-N-(1-(4-amino-7-(3,5-difluoro-4-(1H-tetrazol-1-yl)phenyl)pyrrolo[2,1-f][1,2,4]triazin-5-yl)piperidin-3-yl)-6-(6-isopropyl-2,6-diazaspiro[3.3]heptan-2-yl)picolinamide]: 3 nM; for `COc1cc(-c2cc(N3CCC[C@@H](NC(=O)c4cccc(N5CC6(C5)CN(C(C)C)C6)n4)C3)c3c(N)ncnn23)ccc1-n1cnnn1` [Example 827, (R)-N-(1-(4-amino-7-(3-methoxy-4-(1H-tetrazol-1-yl)phenyl)pyrrolo[2,1-f][1,2,4]triazin-5-y1)piperidin-3-yl)-6-(6-isopropyl-2,6-diazaspiro[3.3]heptan-2-yl)picolinamide]: 7 nM.

The molecule `CC(C)N1CC2(CN(c3cccc(C(=O)N[C@@H]4CCCN(c5cc(-c6cnc(-n7cnnn7)nc6)n6ncnc(N)c56)C4)n3)C2)C1` [Example 828, (R)-N-(1-(7-(2-(1H-tetrazol-1-yl)pyrimidin-5-yl)-4-aminopyrrolo[2,1-f][1,2,4]triazin-5-yl)piperidin-3-yl)-6-(6-isopropyl-2,6-diazaspiro[3.3]heptan-2-yl)picolinamide] came in with an IC50 of 25 nM.

For the molecule `Cc1nnnn1-c1ccc(-c2cc(N3CCC[C@@H](NC(=O)c4cccc(N5CC6(C5)CN(C(C)C)C6)n4)C3)c3c(N)ncnn23)cc1` [Example 829, (R)-N-(1-(4-amino-7-(4-(5-methyl-1H-tetrazol-1-yl)phenyl)pyrrolo[2,1-f][1,2,4]triazin-5-yl)piperidin-3-yl)-6-(6-isopropyl-2,6-diazaspiro[3.3]heptan-2-yl)picolinamide], it took 2 nM to reach half-maximal inhibition (IC50).

`CC(C)N1CC2(CN(c3cccc(C(=O)N[C@@H]4CCCN(c5cc(-c6cnc(-n7cnnn7)c(F)c6)n6ncnc(N)c56)C4)n3)C2)C1` [Example 830, (R)-N-(1-(4-amino-7-(5-fluoro-6-(1H-tetrazol-1-yl)pyridin-3-yl)pyrrolo[2,1-f][1,2,4]triazin-5-yl)piperidin-3-yl)-6-(6-isopropyl-2,6-diazaspiro[3.3]heptan-2-yl)picolinamide] yielded an IC50 of 4 nM. The same measure for `CC(=O)c1ccc(-c2cc(N3CCC[C@@H](NC(=O)c4cccc(N5CC6(C5)CN(C(C)C)C6)n4)C3)c3c(N)ncnn23)cn1` [Example 831, (R)-N-(1-(7-(6-acetylpyridin-3-yl)-4-aminopyrrolo[2,1-f][1,2,4]triazin-5-yl)piperidin-3-yl)-6-(6-isopropyl-2,6-diazaspiro[3.3]heptan-2-yl)picolinamide]: 22 nM; for `CC(C)N1CC2(CN(c3cccc(C(=O)N[C@@H]4CCCN(c5cc(-c6ccc(S(C)(=O)=O)cc6)n6ncnc(N)c56)C4)n3)C2)C1` [Example 832, (R)-N-(1-(4-amino-7-(4-(methylsulfonyl)phenyl)pyrrolo[2,1-f][1,2,4]triazin-5-yl)piperidin-3-yl)-6-(6-isopropyl-2,6-diazaspiro[3.3]heptan-2-yl)picolinamide]: 12 nM; for `CC(C)N1CC2(CN(c3cccc(C(=O)N[C@@H]4CCCN(c5cc(-c6ccc(S(C)(=O)=O)c(F)c6)n6ncnc(N)c56)C4)n3)C2)C1` [Example 833, (R)-N-(1-(4-amino-7-(3-fluoro-4-(methylsulfonyl)phenyl)pyrrolo[2,1-f][1,2,4]triazin-5-yl)piperidin-3-yl)-6-(6-isopropyl-2,6-diazaspiro[3.3]heptan-2-yl)picolinamide]: 9 nM. The same measure for `CC(C)N1CC2(CN(c3cccc(C(=O)N[C@@H]4CCCN(c5cc(-c6ccc(S(C)(=O)=O)nc6)n6ncnc(N)c56)C4)n3)C2)C1` [Example 834, (R)-N-(1-(4-amino-7-(6-(methylsulfonyl)pyridin-3-yl)pyrrolo[2,1-f][1,2,4]triazin-5-yl)piperidin-3-yl)-6-(6-isopropyl-2,6-diazaspiro[3.3]heptan-2-yl)picolinamide]: 20 nM. The same measure for `CNC(=O)c1ccc(-c2cc(N3CCC[C@@H](NC(=O)c4sc(Cl)cc4OCCN(C)C)C3)c3c(N)ncnn23)cn1` [Example 835, (R)-5-(4-amino-5-(3-(5-chloro-3-(2-(dimethylamino)ethoxy)thiophene-2-carboxamido)piperidin-1-yl)pyrrolo[2,1-f][1,2,4]triazin-7-yl)-N-methylpicolinamide]: 13 nM; for `CN1C2CCC1CC(Oc1cc(Cl)sc1C(=O)NC1CCCN(c3cc(-c4cnn(C(F)F)c4)n4ncnc(N)c34)C1)C2` [Example 836, N-((R)-1-(4-amino-7-(1-(difluoromethyl)-1H-pyrazol-4-yl)pyrrolo[2,1-f][1,2,4]triazin-5-yl)piperidin-3-yl)-5-chloro-3-(((1R,3s,5S)-8-methyl-8-azabicyclo[3.2.1]octan-3-yl)oxy)thiophene-2-carboxamide]: 2 nM; for `CN1[C@@H]2CC[C@H]1C[C@H](Oc1cc(Cl)sc1C(=O)N[C@@H]1CCCN(c3cc(-c4ccc(-n5cccn5)cc4)n4ncnc(N)c34)C1)C2` [Example 837, N-((R)-1-(7-(4-(1H-pyrazol-1-yl)phenyl)-4-aminopyrrolo[2,1-f][1,2,4]triazin-5-yl)piperidin-3-yl)-5-chloro-3-(((1R,3s,5S)-8-methyl-8-azabicyclo[3.2.1]octan-3-yl)oxy)thiophene-2-carboxamide]: 4 nM. `CC(=O)c1ccc(-c2cc(N3CCC[C@@H](NC(=O)c4sc(Cl)cc4O[C@@H]4C[C@H]5CC[C@@H](C4)N5C)C3)c3c(N)ncnn23)cn1` [Example 838, N-((R)-1-(7-(6-acetylpyridin-3-yl)-4-aminopyrrolo[2,1-f][1,2,4]triazin-5-yl)piperidin-3-yl)-5-chloro-3-(((1R,3s,5S)-8-methyl-8-azabicyclo[3.2.1]octan-3-yl)oxy)thiophene-2-carboxamide] registered an IC50 of 2 nM. On to `CC(=O)c1ccc(-c2cc(N3CCC[C@@H](NC(=O)c4sc(Cl)cc4O[C@@H]4C[C@H]5CC[C@@H](C4)N5C)C3)c3c(N)ncnn23)cc1F` [Example 839, N-((R)-1-(7-(4-acetyl-3-fluorophenyl)-4-aminopyrrolo[2,1-f][1,2,4]triazin-5-yl)piperidin-3-yl)-5-chloro-3-(((1R,3s,5S)-8-methyl-8-azabicyclo[3.2.1]octan-3-yl)oxy)thiophene-2-carboxamide], for which the IC50 worked out at 2 nM.

Regarding `CN1[C@@H]2CC[C@H]1C[C@H](Oc1cc(Cl)sc1C(=O)N[C@@H]1CCCN(c3cc(-c4ccc(C(F)(F)F)c(F)c4)n4ncnc(N)c34)C1)C2` [Example 841, N-((R)-1-(4-amino-7-(3-fluoro-4-(trifluoromethyl)phenyl)pyrrolo[2,1-f][1,2,4]triazin-5-yl)piperidin-3-yl)-5-chloro-3-(((1R,3s,5S)-8-methyl-8-azabicyclo[3.2.1]octan-3-yl)oxy)thiophene-2-carboxamide], 17 nM corresponded to half-maximal inhibition (IC50). Under `CN1[C@@H]2CC[C@H]1C[C@H](Oc1cc(Cl)sc1C(=O)N[C@@H]1CCCN(c3cc(-c4cnc(-n5cnnn5)c(F)c4)n4ncnc(N)c34)C1)C2` [Example 843, N-((R)-1-(4-amino-7-(5-fluoro-6-(1H-tetrazol-1-yl)pyridin-3-yl)pyrrolo[2,1-f][1,2,4]triazin-5-yl)piperidin-3-yl)-5-chloro-3-(((1R,3s,5S)-8-methyl-8-azabicyclo[3.2.1]octan-3-yl)oxy)thiophene-2-carboxamide] stands 2 nM; under `Cc1cc(O[C@@H]2C[C@H]3CC[C@@H](C2)N3C)c(C(=O)N[C@@H]2CCCN(c3cc(-c4cc(F)c(-n5cnnn5)c(F)c4)n4ncnc(N)c34)C2)s1` [Example 844, N-((R)-1-(4-amino-7-(3,5-difluoro-4-(1H-tetrazol-1-yl)phenyl)pyrrolo[2,1-f][1,2,4]triazin-5-yl)piperidin-3-yl)-5-methyl-3-(((1R,3s,5S)-8-methyl-8-azabicyclo[3.2.1]octan-3-yl)oxy)thiophene-2-carboxamide], 3 nM; under `Cc1cc(O[C@@H]2C[C@H]3CC[C@@H](C2)N3C)c(C(=O)N[C@@H]2CCCN(c3cc(-c4cnc(-n5cnnn5)c(F)c4)n4ncnc(N)c34)C2)s1` [Example 845, N-((R)-1-(4-amino-7-(5-fluoro-6-(1H-tetrazol-1-yl)pyridin-3-yl)pyrrolo[2,1-f][1,2,4]triazin-5-yl)piperidin-3-yl)-5-methyl-3-(((1R,3s,5S)-8-methyl-8-azabicyclo[3.2.1]octan-3-yl)oxy)thiophene-2-carboxamide, TFA salt], 3 nM.

On to `CC(=O)c1ccc(-c2cc(N3CCC[C@@H](NC(=O)c4sc(C)cc4O[C@@H]4C[C@H]5CC[C@@H](C4)N5C)C3)c3c(N)ncnn23)cn1` [Example 846, N-((R)-1-(7-(6-acetylpyridin-3-yl)-4-aminopyrrolo[2,1-f][1,2,4]triazin-5-yl)piperidin-3-yl)-5-methyl-3-(((1R,3s,5S)-8-methyl-8-azabicyclo[3.2.1]octan-3-yl)oxy)thiophene-2-carboxamide], for which the IC50 came to 16 nM.

What is called IC50 is the concentration at which inhibition is half-maximal. A high value points to weaker potency in that assay.
